Assay results taken from patent US20100261876A1, “NOVEL METHODS OF […] FOR T[…] PEPTIDES” (priority 2007, published 2010).
Where a SMILES comes first, the peptide text is derived from it.

Experiments:
HIV-Res = assay: Magi-CCR5 infectivity assay, resistant viral isolate; format: cell-based, HIV-1; details: compared to SEQ ID NO:6 / 7
Excerpt: Assessment of biological properties included measurement of antiviral activity against HIV-1 strains. In determining antiviral activity (e.g., one measure being the ability to inhibit transmission of HIV to a target cell) of the HIV fusion inhibitor peptides, an in vitro assay which has been shown, by data generated using peptides derived from the HR regions of HIV gp41, to be predictive of antiviral activity observed in vivo was used. […] These assays score for reduction of infectious virus titer employing the indicator cell lines MAGI or the CCR5 expressing derivative cMAGI. Both cell lines exploit the ability of HIV-1 tat to transactivate the expression of a β-galactosidase reporter gene driven by the HIV-LTR. The β-gal reporter has been modified to localize in the nucleus and can be detected with the X-gal substrate as intense nuclear staining within a few days of infection. […] The number of infected cells for each control and peptide dilution was determined with the CCD-imager, and then the IC50 was calculated (expressed in μg/ml).
Viruses resistant to the antiviral activity of a peptide consisting of a base sequence can be produced using standard laboratory methods. […] The cultures are maintained and monitored until syncytia are present. […] The second round of culture is maintained and monitored for presence of virus resistant to the antiviral activity of the peptide. […]

[1] = Intravenous pharmacokinetics in cynomolgus monkeys; format: in vivo, cynomolgus monkeys (Macaca fasicularis); details: relative to base sequence SEQ ID NO:5
Method: For determining pharmacokinetic properties, an HIV fusion inhibitor peptide or a base sequence from which an HIV fusion inhibitor peptide is derived was dosed intravenously in cynomolgus monkeys (Macaca fasicularis) (other animal models may be used for determining pharmacokinetic properties, as known in the art). At various times post-dose, blood samples were drawn and plasma isolated by centrifugation. Plasma samples were stored frozen until analysis by LC-MS (liquid chromatography/mass spectrometry) in the electrospray, positive-ion mode. An HIV fusion inhibitor or base sequence was eluted from a C18 or C8 HPLC column with a gradient of acetonitrile in a buffer of 10 mM ammonium acetate, pH 6.8. At the time of analysis, plasma samples were deproteinated with either two or three volumes of acetonitrile containing 0.5% formic acid. Duplicate calibration standards in cynomolgus plasma samples were prepared at the same time as the samples and analyzed before and after the samples containing either HIV fusion inhibitor peptide or base sequence. Pharmacokinetic properties were calculated from the plasma concentration-time data using either mono-exponential or bi-exponential mathematical models. Models were derived by non-linear least squares optimization. A 1/C^2 weighting of concentrations was used. […]

[2] = Stability in aqueous solution (PBS), peptide remaining in solution by HPLC; format: physicochemical; details: phosphate-buffered saline (PBS), 10 mg/ml in PBS, about pH 7.3 to 7.5, 37° C., read-out: peptide remaining detectable in solution at 1 week
[3] = tested on: virus isolates (IIIB, 030, 060 and 098); assay: In vitro resistance selection, geometric mean over isolates; format: cell-based, HIV; details: compared to SEQ ID NO:2
Method: Biological properties of the HIV fusion inhibitor peptides provided herein have been compared with other recognized, effective antiviral agents, including SEQ ID NO: 2 (enfuvirtide). In particular, in vitro resistance comparison studies were performed between the novel SEQ ID NO:9 compound of interest and established antiviral agent SEQ ID NO:2, described in detail as follows: MT2 cells were infected with virus isolates (IIIB, 030, 060 and 098) and cultured in increasing concentrations of SEQ ID NO:2 (enfuvirtide) or SEQ ID NO:9 to select for resistance. The initial peptide concentration was approximately 2 times the IC50 of each peptide against the corresponding wild type isolate. Peptide concentrations were maintained by adding fresh peptide every 1-3 days. Cultures were monitored for cytopathic effect (CPE) using standard techniques and when maximal CPE was achieved, a small aliquot of virus was used for subsequent rounds of infection. Peptide concentrations were increased 2 to 4-fold depending on the length of time in culture when compared to the growth rate of wild type virus. During the course of selection, peptide-free virus stocks were also collected. Peptide-free virus stocks were characterized for gp41 genotypic changes by dideoxy sequencing chemistries and phenotypic susceptibility was determined using a cMAGI infectivity assay.

CC[C@H](C)[C@H](NC(=O)[C@H](C)NC(=O)[C@H](CCCNC(=N)N)NC(=O)[C@H](CC(=O)O)NC(=O)[C@H](Cc1c[nH]c2ccccc12)NC(=O)[C@H](C)NC(=O)[C@H](CCC(=O)O)NC(=O)[C@H](Cc1c[nH]c2ccccc12)NC(=O)[C@@H](NC(=O)[C@@H](NC(C)=O)[C@@H](C)O)[C@@H](C)O)C(=O)N[C@@H](C)C(=O)N[C@@H](CCC(=O)O)C(=O)N[C@@H](Cc1ccc(O)cc1)C(=O)N[C@@H](C)C(=O)N[C@@H](C)C(=O)N[C@@H](CCCNC(=N)N)C(=O)N[C@H](C(=O)N[C@@H](CCC(=O)O)C(=O)N[C@@H](C)C(=O)N[C@@H](CC(C)C)C(=O)N[C@@H](CC(C)C)C(=O)N[C@@H](CCCNC(=N)N)C(=O)N[C@@H](C)C(=O)N[C@@H](CC(C)C)C(=O)N[C@@H](CCC(N)=O)C(=O)N[C@@H](CCC(=O)O)C(=O)N[C@@H](CCC(N)=O)C(=O)N[C@@H](CCC(N)=O)C(=O)N[C@@H](CCC(=O)O)C(=O)N[C@@H](CCCCN)C(=O)N[C@@H](CC(N)=O)C(=O)N[C@@H](CCC(=O)O)C(=O)N[C@@H](C)C(=O)N[C@@H](C)C(=O)N[C@@H](CC(C)C)C(=O)N[C@@H](CCCNC(=N)N)C(=O)N[C@@H](CCC(=O)O)C(=O)N[C@@H](CC(C)C)C(N)=O)[C@@H](C)CC [compound 9] (Ac-TTWEAWDRAIAEYAARIEALLRALQEQQEKNEAALREL-NH2)
resistance profile (activity against the resistant viral isolate Res) (HIV-Res): good resistance profile | biological half-life, in words [1]: increased biological half-life | remaining at 168 h, 10 mg/ml [2]: ≥ 90% | barrier to development of resistance in vitro [3]: higher barrier to development of resistance

CC[C@H](C)[C@H](NC(=O)[C@H](C)NC(=O)[C@H](CCCNC(=N)N)NC(=O)[C@H](CC(=O)O)NC(=O)[C@H](Cc1c[nH]c2ccccc12)NC(=O)[C@H](C)NC(=O)[C@H](CCC(=O)O)NC(=O)[C@H](Cc1c[nH]c2ccccc12)NC(=O)[C@@H](NC(=O)[C@@H](NC(C)=O)[C@@H](C)O)[C@@H](C)O)C(=O)N[C@@H](C)C(=O)N[C@@H](CCC(=O)O)C(=O)N[C@@H](Cc1ccc(O)cc1)C(=O)N[C@@H](C)C(=O)N[C@@H](C)C(=O)N[C@@H](CCCNC(=N)N)C(=O)N[C@H](C(=O)N[C@@H](CCC(=O)O)C(=O)N[C@@H](C)C(=O)N[C@@H](CC(C)C)C(=O)N[C@@H](CC(C)C)C(=O)N[C@@H](CCCNC(=N)N)C(=O)N[C@@H](C)C(=O)N[C@@H](C)C(=O)N[C@@H](CCC(N)=O)C(=O)N[C@@H](CCC(=O)O)C(=O)N[C@@H](CCC(N)=O)C(=O)N[C@@H](CCC(N)=O)C(=O)N[C@@H](CCC(=O)O)C(=O)N[C@@H](CCCCN)C(=O)N[C@@H](CC(C)C)C(=O)N[C@@H](CCC(=O)O)C(=O)N[C@@H](C)C(=O)N[C@@H](C)C(=O)N[C@@H](CC(C)C)C(=O)N[C@@H](CCCNC(=N)N)C(=O)N[C@@H](CCC(=O)O)C(=O)N[C@@H](CC(C)C)C(N)=O)[C@@H](C)CC [compound 10] (Ac-TTWEAWDRAIAEYAARIEALLRAAQEQQEKLEAALREL-NH2)
resistance profile (activity against the resistant viral isolate Res) (HIV-Res): good resistance profile | biological half-life, in words [1]: increased biological half-life
